Key:
Assay type in all cases: in vivo
[1] = system: Monochoria vaginalis; assay: Test Example 12: herbicidal effect test by treatment during growing period in paddy field; settings: 120 g/10a; treatment seven days after sowing in flooded paddy pot; assessed 14 days after treatment
Procedure, shortened: (§1)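 Read-out: weed suppression (%) = (1 − treated/untreated mean dry weight) × 100, scored 14 days after treatment with two replications. Pots held puddled paddy soil, 30 seeds per species sown 0–1 cm, flooded ~3 cm. Post-emergence dropwise water application at 7 days after sowing, 120 g a.i./10 are.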

[2] = system: Echinochloa crus-galli; assay: as above; settings: 120 g/10a; treatment seven days after sowing in flooded paddy pot; assessed 14 days after treatment
Procedure, shortened: as §1

[3] = system: Lindernia pyxidaria; assay: as above; settings: 120 g/10a; treatment seven days after sowing in flooded paddy pot; assessed 14 days after treatment
Procedure, shortened: as §1

[4] = system: Scirpus juncoides; assay: as above; settings: 120 g/10a; treatment seven days after sowing in flooded paddy pot; assessed 14 days after treatment
Procedure, shortened: as §1

[5] = system: Monochoria vaginalis; assay: Test Example 11: herbicidal effect test by soil treatment in paddy field; settings: 120 g/10a active ingredient, 14 days after treatment
Procedure, shortened: (§2)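 Puddled paddy soil with N:P:K 17:17:17 fertilizer in Wagner pots; 30 seeds per species sown at 0–1 cm, flooded to about 3 cm, kept in a glass greenhouse. Water-diluted emulsifiable concentrate dripped in immediately after sowing at 120 g a.i. per 10 are. Suppression from dry weight versus untreated at 14 days.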

[6] = system: Echinochloa crus-galli; assay: as above; settings: 120 g/10a active ingredient, 14 days after treatment
Procedure, shortened: as §2

[7] = system: Lindernia pyxidaria; assay: as above; settings: 120 g/10a active ingredient, 14 days after treatment
Procedure, shortened: as §2

[8] = system: Scirpus juncoides; assay: as above; settings: 120 g/10a active ingredient, 14 days after treatment
Procedure, shortened: as §2

[9] = system: crabgrass; assay: Test Example 14: herbicidal effect test by foliage treatment in upland field; settings: 7 days after sowing, 120 g/10a, 14 days after treatment
Procedure, shortened: (§3)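 Weeds sown 20 seeds each in alluvial field soil; 7 days after sowing, water-diluted emulsifiable concentrate sprayed at 100 L per 10 are, 120 g active ingredient per 10 are. Suppression rate (%) from dry weight versus untreated plots at 14 days, two replicates.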

[10] = system: Chenopodium album; assay: as above; settings: 7 days after sowing, 120 g/10a, 14 days after treatment
Procedure, shortened: as §3

[11] = system: Amaranthus viridis; assay: as above; settings: 7 days after sowing, 120 g/10a, 14 days after treatment
Procedure, shortened: as §3

[12] = system: Echinochloa crus-galli; assay: as above; settings: 7 days after sowing, 120 g/10a, 14 days after treatment
Procedure, shortened: as §3

[13] = system: crabgrass; assay: Test Example 13: herbicidal effect test by soil treatment in upland field; settings: 120 g/10a, 14 days after treatment
Procedure, shortened: (§4)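 Field alluvial soil in 36 cm^2 pots had 20 seeds of each weed mixed into its top 1 cm. One day after sowing, a water-diluted emulsifiable concentrate was sprayed onto the soil at 100 liter per 10 are (120 g active ingredient per 10 are), with two replicates. Weed suppression (%) was assessed after 14 days.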

[14] = system: Amaranthus viridis; assay: as above; settings: 120 g/10a, 14 days after treatment
Procedure, shortened: as §4

[15] = system: Echinochloa crus-galli; assay: as above; settings: 120 g/10a, 14 days after treatment
Procedure, shortened: as §4

[16] = system: Chenopodium album; assay: as above; settings: 120 g/10a, 14 days after treatment
Procedure, shortened: as §4

Structure (SMILES)	Weed suppression rate (%) Monochoria vaginalis [1]	Weed suppression rate (%) Echinochloa crus-galli [2]	Weed suppression rate (%) Lindemia pyxidaria [3]	Weed suppression rate (%) Scirpus juncoides [4]	Weed suppression rate (%) Monochoria vaginalis [5]	Weed suppression rate (%) Echinochloa crus-galli [6]	Weed suppression rate (%) Lindemia pyxidaria [7]	Weed suppression rate (%) Scirpus juncoides [8]	herbicidal effect, Crabgrass [9]	herbicidal effect, Chenopodium album [10]	herbicidal effect, Amaranthus viridis [11]	herbicidal effect, Echinochloa crus-galli [12]	herbicidal effect, Crabgrass [13]	herbicidal effect, Amaranthus viridis [14]	herbicidal effect, Echinochloa crus-galli [15]	herbicidal effect, Chenopodium album [16]
CC(C)N(C(=O)n1cnn(S(=O)(=O)c2cccs2)c1=O)c1ccc(F)cc1F [Compound 11-1022]	90%	90%	90%	90%	90%	100%	100%	100%	70%	40%	0%	90%	100%	70%	100%	100%
CC(C)N(C(=O)n1cnn(S(=O)(=O)c2cccs2)c1=O)c1ccc(F)cc1Cl [Compound 11-1029]	80%	90%	80%	90%	80%	90%	80%	90%	90%	80%	90%	80%	90%	90%	80%	80%
CC(C)N(C(=O)n1cnn(S(=O)(=O)N(C)C)c1=O)c1ccc(F)cc1 [Compound 11-1056]	80%	90%	80%	90%	80%	90%	80%	90%	90%	80%	90%	80%	90%	90%	80%	80%
CC(C)N(C(=O)n1cnn(S(=O)(=O)N(C)C)c1=O)c1ccc(F)cc1F [Compound 11-1064]	90%	100%	90%	90%	100%	100%	100%	100%	90%	80%	70%	90%	100%	90%	100%	90%
CC(C)N(C(=O)n1cnn(S(=O)(=O)N(C)C)c1=O)c1ccc(F)cc1Cl [Compound 11-1071]	80%	90%	80%	90%	80%	90%	80%	90%	90%	80%	90%	80%	90%	90%	80%	80%
CC(C)N(C(=O)n1cnn(S(=O)(=O)N(C)C)c1=O)c1ccc(Cl)cn1 [Compound 11-1090]	60%	100%	90%	90%	60%	100%	100%	90%	90%	40%	40%	90%	90%	50%	80%	50%
CCN(C)S(=O)(=O)n1ncn(C(=O)N(c2ccc(F)cc2F)C(C)C)c1=O [Compound 11-1098]	80%	100%	70%	70%	80%	100%	100%	100%	90%	80%	90%	80%	100%	90%	100%	100%
CC(C)CN(C)S(=O)(=O)n1ncn(C(=O)N(c2ccc(F)cc2F)C(C)C)c1=O [Compound 11-1101]	80%	90%	80%	90%	90%	90%	90%	90%	90%	80%	90%	80%	90%	90%	80%	80%
CC(C)N(C(=O)n1cnn(S(=O)(=O)N2CCCCC2)c1=O)c1ccc(F)cc1F [Compound 11-1102]	80%	100%	70%	90%	90%	100%	100%	90%	90%	80%	90%	80%	100%	90%	100%	100%
CC(C)N(C(=O)n1cnn(S(=O)(=O)C2CCOCC2)c1=O)c1ccc(F)cc1F [Compound 11-1109]	80%	90%	80%	90%	80%	90%	80%	90%	90%	80%	90%	80%	100%	100%	100%	100%

From US11076595B2, “1-(n,n-disubstituted carbamoyl) 4-(substituted sulfonyl)triazolin-5-one derivative, 4-(n,n-disubstituted carbamoyl) 1-(substituted sulfonyl)triazolin-5-one derivative, and herbicide containing said derivative as active ingredient” (HOKKO CHEMICAL INDUSTRY CO., LTD., priority 2017, dated 2021)
